Laboratory results reported in ChEMBL document CHEMBL3792365, “Dioxol and dihydrodioxin analogs of 2- and 3-phenylacetonitriles as potent anti-cancer agents with nanomolar activity against a variety of human cancer cells” (2016).

Tests used:
Assay type in all cases: functional
NCI-H226 = assay: Growth inhibition of human NCI-H226 cells at 10 uM after 48 hrs by sulforhodamine B assay; conditions: NCI-H226, 48 h, values are per cent of control
NCI-H23 = assay: Growth inhibition of human NCI-H23 cells at 10 uM after 48 hrs by sulforhodamine B assay; conditions: NCI-H23, 48 h, values are per cent of control
MDA-MB-468 = assay: Growth inhibition of human MDA-MB-468 cells at 10 uM after 48 hrs by sulforhodamine B assay; conditions: MDA-MB-468, 48 h, values are per cent of control
SN12C = assay: Growth inhibition of human SN12C cells at 10 uM after 48 hrs by sulforhodamine B assay; conditions: values are per cent of control
NCI-H522 = assay: Growth inhibition of human NCI-H522 cells at 10 uM after 48 hrs by sulforhodamine B assay; conditions: NCI-H522, 48 h, values are per cent of control
[1] = Growth inhibition of human SW620 cells at 10 uM after 48 hrs by sulforhodamine B assay; conditions: SW-620, 48 h, values are per cent of control
[2] = Growth inhibition of human HOP62 cells at 10 uM after 48 hrs by sulforhodamine B assay; conditions: HOP-62, 48 h, values are per cent of control
[3] = Growth inhibition of human HCT116 cells at 10 uM after 48 hrs by sulforhodamine B assay; conditions: HCT-116, 48 h, values are per cent of control
[4] = Growth inhibition of human SNB19 cells at 10 uM after 48 hrs by sulforhodamine B assay; conditions: SNB-19, 48 h, values are per cent of control
[5] = Growth inhibition of human OVCAR4 cells at 10 uM after 48 hrs by sulforhodamine B assay; conditions: OVCAR-4, 48 h, values are per cent of control
[6] = Growth inhibition of human Caki1 cells at 10 uM after 48 hrs by sulforhodamine B assay; conditions: CAKI-1, 48 h, values are per cent of control
[7] = Growth inhibition of human SF295 cells at 10 uM after 48 hrs by sulforhodamine B assay; conditions: SF-295, 48 h, values are per cent of control
SR = assay: Growth inhibition of human SR cells at 10 uM after 48 hrs by sulforhodamine B assay; conditions: values are per cent of control
SK-MEL-2 = assay: Growth inhibition of human SK-MEL-2 cells at 10 uM after 48 hrs by sulforhodamine B assay; conditions: SK-MEL-2, 48 h, values are per cent of control
T47D = assay: Growth inhibition of human T47D cells at 10 uM after 48 hrs by sulforhodamine B assay; conditions: values are per cent of control
[8] = Growth inhibition of human TK10 cells at 10 uM after 48 hrs by sulforhodamine B assay; conditions: TK-10, 48 h, values are per cent of control
[9] = Growth inhibition of human Hs 578T cells at 10 uM after 48 hrs by sulforhodamine B assay; conditions: values are per cent of control
[10] = Growth inhibition of human UACC62 cells at 10 uM after 48 hrs by sulforhodamine B assay; conditions: UACC-62, 48 h, values are per cent of control
K562 = assay: Growth inhibition of human K562 cells at 10 uM after 48 hrs by sulforhodamine B assay; conditions: K562, 48 h, values are per cent of control
[11] = Growth inhibition of human SKOV3 cells at 10 uM after 48 hrs by sulforhodamine B assay; conditions: SK-OV-3, 48 h, values are per cent of control
[12] = Growth inhibition of human SNB75 cells at 10 uM after 48 hrs by sulforhodamine B assay; conditions: SNB-75, 48 h, values are per cent of control
[13] = Growth inhibition of human HCT15 cells at 10 uM after 48 hrs by sulforhodamine B assay; conditions: HCT-15, 48 h, values are per cent of control
SK-MEL-28 = assay: Growth inhibition of human SK-MEL-28 cells at 10 uM after 48 hrs by sulforhodamine B assay; conditions: SK-MEL-28, 48 h, values are per cent of control
[14] = Growth inhibition of human HCC2998 cells at 10 uM after 48 hrs by sulforhodamine B assay; conditions: HCC 2998, 48 h, values are per cent of control
[15] = Growth inhibition of human SF268 cells at 10 uM after 48 hrs by sulforhodamine B assay; conditions: SF-268, 48 h, values are per cent of control
[16] = Growth inhibition of human COLO205 cells at 10 uM after 48 hrs by sulforhodamine B assay; conditions: COLO 205, 48 h, values are per cent of control
[17] = Growth inhibition of human NCI-ADR-RES cells at 10 uM after 48 hrs by sulforhodamine B assay; conditions: values are per cent of control
[18] = Growth inhibition of human DU145 cells at 10 uM after 48 hrs by sulforhodamine B assay; conditions: DU-145, 48 h, values are per cent of control
786-0 = assay: Growth inhibition of human 786-0 cells at 10 uM after 48 hrs by sulforhodamine B assay; conditions: 786-0, 48 h, values are per cent of control
NCI-H322M = assay: Growth inhibition of human NCI-H322M cells at 10 uM after 48 hrs by sulforhodamine B assay; conditions: values are per cent of control
MDA-MB-435 = assay: Growth inhibition of human MDA-MB-435 cells at 10 uM after 48 hrs by sulforhodamine B assay; conditions: MDA-MB-435, 48 h, values are per cent of control
NCI-H460 = assay: Growth inhibition of human NCI-H460 cells at 10 uM after 48 hrs by sulforhodamine B assay; conditions: NCI-H460, 48 h, values are per cent of control
A498 = assay: Growth inhibition of human A498 cells at 10 uM after 48 hrs by sulforhodamine B assay; conditions: A498, 48 h, values are per cent of control
[19] = Growth inhibition of human SF539 cells at 10 uM after 48 hrs by sulforhodamine B assay; conditions: SF-539, 48 h, values are per cent of control
U-251 = assay: Growth inhibition of human U251 cells at 10 uM after 48 hrs by sulforhodamine B assay; conditions: U-251, 48 h, values are per cent of control
M14 = assay: Growth inhibition of human M14 cells at 10 uM after 48 hrs by sulforhodamine B assay; conditions: M14, 48 h, values are per cent of control
[20] = Growth inhibition of human RXF393 cells at 10 uM after 48 hrs by sulforhodamine B assay; conditions: RXF 393, 48 h, values are per cent of control
[21] = Growth inhibition of human OVCAR5 cells at 10 uM after 48 hrs by sulforhodamine B assay; conditions: OVCAR-5, 48 h, values are per cent of control
[22] = Growth inhibition of human IGROV1 cells at 10 uM after 48 hrs by sulforhodamine B assay; conditions: IGROV-1, 48 h, values are per cent of control
ACHN = assay: Growth inhibition of human ACHN cells at 10 uM after 48 hrs by sulforhodamine B assay; conditions: values are per cent of control

COc1ccc(/C(C#N)=C/c2ccc3c(c2)OCCO3)cc1
growth, % of control at 10 µM (NCI-H226): 81.2% | growth, % of control at 10 µM (NCI-H23): 78.3% | growth, % of control at 10 µM (MDA-MB-468): 14.8% | growth, % of control at 10 µM (SN12C): 72.1% | growth, % of control at 10 µM (NCI-H522): 39.3% | growth, % of control at 10 µM [1]: 28.8% | growth, % of control at 10 µM [2]: 68.3% | growth, % of control at 10 µM [3]: 38.8% | growth, % of control at 10 µM [4]: 83.3% | growth, % of control at 10 µM [5]: 94.6% | growth, % of control at 10 µM [6]: 64.2% | growth, % of control at 10 µM [7]: 66.7% | growth, % of control at 10 µM (SR): -1.3% | growth, % of control at 10 µM (SK-MEL-2): 36% | growth, % of control at 10 µM (T47D): 40.4% | growth, % of control at 10 µM [8]: 65.2% | growth, % of control at 10 µM [9]: 79.6% | growth, % of control at 10 µM [10]: 53.7% | growth, % of control at 10 µM (K562): 18.7% | growth, % of control at 10 µM [11]: 81% | growth, % of control at 10 µM [12]: 61.1% | growth, % of control at 10 µM [13]: 43.4% | growth, % of control at 10 µM (SK-MEL-28): 75.3% | growth, % of control at 10 µM [14]: 55.7% | growth, % of control at 10 µM [15]: 71.9% | growth, % of control at 10 µM [16]: 50.5% | growth, % of control at 10 µM [17]: 34.4% | growth, % of control at 10 µM [18]: 84.7% | growth, % of control at 10 µM (786-0): 80.2% | growth, % of control at 10 µM (NCI-H322M): 77.5% | growth, % of control at 10 µM (MDA-MB-435): -29.8% | growth, % of control at 10 µM (NCI-H460): 33.4% | growth, % of control at 10 µM (A498): 70.9% | growth, % of control at 10 µM [19]: 63.7% | growth, % of control at 10 µM (U-251): 36.3% | growth, % of control at 10 µM (M14): 38.5% | growth, % of control at 10 µM [20]: 77.3% | growth, % of control at 10 µM [21]: 88% | growth, % of control at 10 µM [22]: 71.3% | growth, % of control at 10 µM (ACHN): 87.7%

COc1ccc(/C=C(\C#N)c2ccc3c(c2)OCO3)c(OC)c1
growth, % of control at 10 µM (NCI-H226): 73.8% | growth, % of control at 10 µM (NCI-H23): 59.1% | growth, % of control at 10 µM (MDA-MB-468): 8.3% | growth, % of control at 10 µM (SN12C): 53.3% | growth, % of control at 10 µM (NCI-H522): 43.3% | growth, % of control at 10 µM [1]: 31.9% | growth, % of control at 10 µM [2]: 54% | growth, % of control at 10 µM [3]: 19.3% | growth, % of control at 10 µM [4]: 55.6% | growth, % of control at 10 µM [5]: 73.7% | growth, % of control at 10 µM [6]: 40% | growth, % of control at 10 µM [7]: 27.1% | growth, % of control at 10 µM (SR): 15.5% | growth, % of control at 10 µM (SK-MEL-2): 2.7% | growth, % of control at 10 µM (T47D): 43.5% | growth, % of control at 10 µM [8]: 49.7% | growth, % of control at 10 µM [9]: 43.8% | growth, % of control at 10 µM [10]: 39.7% | growth, % of control at 10 µM (K562): 15.9% | growth, % of control at 10 µM [11]: 33.2% | growth, % of control at 10 µM [12]: 12.8% | growth, % of control at 10 µM [13]: 24.4% | growth, % of control at 10 µM (SK-MEL-28): 50.2% | growth, % of control at 10 µM [14]: 60.5% | growth, % of control at 10 µM [15]: 53.1% | growth, % of control at 10 µM [16]: 25.4% | growth, % of control at 10 µM [17]: 20.3% | growth, % of control at 10 µM [18]: 63.9% | growth, % of control at 10 µM (786-0): 52.1% | growth, % of control at 10 µM (NCI-H322M): 67.6% | growth, % of control at 10 µM (MDA-MB-435): -28.6% | growth, % of control at 10 µM (NCI-H460): 36% | growth, % of control at 10 µM (A498): 26.5% | growth, % of control at 10 µM [19]: 19% | growth, % of control at 10 µM (U-251): 29.2% | growth, % of control at 10 µM (M14): 16.4% | growth, % of control at 10 µM [20]: 40.3% | growth, % of control at 10 µM [21]: 81.6% | growth, % of control at 10 µM [22]: 45.1% | growth, % of control at 10 µM (ACHN): 59.1%
